# Reference: ChEMBL document CHEMBL1201862, “PubChem BioAssay data set” (2004)
#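 How tested: cells in 96-well plates exposed to compound for 48 hours at five concentrations. GI50: concentration for 50% inhibition of growth.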 The source made the active and inactive calls. Cut-off read from the data, not from the text of the source: active = GI50 up to about 1.1 µM and inactive = higher.
# Assays:
# Assay in all cases: NCI tumour cell line growth inhibition, 48 h
# A498 = system: A498
# A549 = system: A549
# CAKI-1 = system: CAKI-1
# EKVX = system: EKVX
# HCC 2998 = system: HCC 2998
# HOP-62 = system: HOP-62
# IGROV-1 = system: IGROV-1
# LOX IMVI = system: LOX IMVI
# MOLT-4 = system: MOLT-4
# NCI-H522 = system: NCI-H522
# OVCAR-4 = system: OVCAR-4
# PC-3 = system: PC-3
# RPMI-8226 = system: RPMI-8226
# SF-539 = system: SF-539
# SNB-19 = system: SNB-19
# SNB-75 = system: SNB-75
# SW-620 = system: SW-620
# T47D = system: T47D
# NCI-H226 = system: NCI-H226
SMILES,GI50 (A498),GI50 (A549),GI50 (CAKI-1),GI50 (EKVX),GI50 (HCC 2998),GI50 (HOP-62),GI50 (IGROV-1),GI50 (LOX IMVI),GI50 (MOLT-4),GI50 (NCI-H522),GI50 (OVCAR-4),GI50 (PC-3),GI50 (RPMI-8226),GI50 (SF-539),GI50 (SNB-19),GI50 (SNB-75),GI50 (SW-620),GI50 (T47D),GI50 (NCI-H226)
O=C(c1cccs1)N(C(=S)OCCOc1ccccc1)c1ccccc1,25.5 µM (inactive),28.1 µM (inactive),27.2 µM (inactive),29.5 µM (inactive),24.7 µM (inactive),28.2 µM (inactive),25.4 µM (inactive),17.1 µM (inactive),27.4 µM (inactive),23 µM (inactive),29.8 µM (inactive),24.7 µM (inactive),20.9 µM (inactive),34.3 µM (inactive),29.4 µM (inactive),24.3 µM (inactive),25.5 µM (inactive),35.8 µM (inactive),
CC(C)C[C@@H](NC(=O)[C@@H](Cc1cccc2ccccc12)NC(=O)N1CCOCC1)B(O)O,31 µM (inactive),> 100 µM (inactive),72.8 µM (inactive),,> 100 µM (inactive),> 100 µM (inactive),> 100 µM (inactive),54.6 µM (inactive),31.5 µM (inactive),,> 100 µM (inactive),> 100 µM (inactive),32.5 µM (inactive),43.4 µM (inactive),> 100 µM (inactive),,,58.2 µM (inactive),18 µM (inactive)
COC(=O)c1c(CC(Cc2ccc3c(c2)CCCC3)C(=O)OC)ccc2c1CCCC2 (stereo unspecified),> 100 µM (inactive),37 µM (inactive),> 100 µM (inactive),19.5 µM (inactive),23.1 µM (inactive),> 100 µM (inactive),> 100 µM (inactive),43 µM (inactive),27.2 µM (inactive),> 100 µM (inactive),5.68 µM (inactive),38.7 µM (inactive),24.9 µM (inactive),> 100 µM (inactive),> 100 µM (inactive),> 10 µM (inactive),> 100 µM (inactive),35.8 µM (inactive),
Nc1ccn([C@H]2CO[C@@H](CO)[C@@H]2O)c(=O)n1,> 100 µM (inactive),,> 100 µM (inactive),> 100 µM (inactive),> 100 µM (inactive),> 100 µM (inactive),> 100 µM (inactive),> 100 µM (inactive),> 100 µM (inactive),,> 100 µM (inactive),> 100 µM (inactive),> 100 µM (inactive),> 100 µM (inactive),,> 100 µM (inactive),> 100 µM (inactive),> 100 µM (inactive),> 100 µM (inactive)
COC(=O)c1c2c(cc3c1CC1(Cc4cc5c(c(C=O)c4C1)CCCC5)C3)CCCC2 (stereo unspecified),66.8 µM (inactive),33.5 µM (inactive),,52.4 µM (inactive),39 µM (inactive),31.8 µM (inactive),81.5 µM (inactive),> 100 µM (inactive),55.1 µM (inactive),32.1 µM (inactive),34.1 µM (inactive),40.5 µM (inactive),> 100 µM (inactive),74.8 µM (inactive),,,,45.3 µM (inactive),80 µM (inactive)
O=C1CCCC2C3CC(CN12)C1CCCCN1C3.[O-][Cl+3]([O-])([O-])O (stereo unspecified),> 100 µM (inactive),> 100 µM (inactive),> 100 µM (inactive),> 100 µM (inactive),> 100 µM (inactive),> 100 µM (inactive),> 100 µM (inactive),> 100 µM (inactive),> 100 µM (inactive),> 100 µM (inactive),> 100 µM (inactive),> 100 µM (inactive),> 100 µM (inactive),> 100 µM (inactive),> 100 µM (inactive),,> 100 µM (inactive),> 100 µM (inactive),> 100 µM (inactive)
c1ccc(/C(=N/Nc2nc3ccccc3s2)C2CCCCC2)nc1,16.6 µM (inactive),16.9 µM (inactive),6.95 µM (inactive),11.9 µM (inactive),< 0.01 µM (active),9.46 µM (inactive),4.43 µM (inactive),13.6 µM (inactive),0.203 µM (active),2.76 µM (inactive),9.79 µM (inactive),6.11 µM (inactive),3.94 µM (inactive),13.8 µM (inactive),13.2 µM (inactive),,5.21 µM (inactive),0.299 µM (active),10 µM (inactive)
C=C1C(=O)O[C@H]2C[C@@H]1C(=O)CC(C)CCCC(C)=CCC[C@@]2(C)O (stereo partly specified),> 25 µM (inactive),> 25 µM (inactive),,> 25 µM (inactive),> 25 µM (inactive),> 25 µM (inactive),> 25 µM (inactive),> 25 µM (inactive),> 25 µM (inactive),> 25 µM (inactive),> 25 µM (inactive),> 25 µM (inactive),> 25 µM (inactive),> 25 µM (inactive),> 25 µM (inactive),,> 25 µM (inactive),> 25 µM (inactive),> 25 µM (inactive)
O=C1C(=Cc2cccc(O)c2)N=C(c2ccccc2)N1n1c(-c2ccccc2)nc2ccccc2c1=O,34.7 µM (inactive),36.9 µM (inactive),24.7 µM (inactive),34.9 µM (inactive),,,20.7 µM (inactive),23.4 µM (inactive),15.9 µM (inactive),17.1 µM (inactive),29.6 µM (inactive),23.8 µM (inactive),17.4 µM (inactive),17.9 µM (inactive),25.9 µM (inactive),,42.3 µM (inactive),34.9 µM (inactive),0.48 µM (active)
COc1cc2c(cc1OC)CCN=C2,> 100 µM (inactive),,> 100 µM (inactive),,> 100 µM (inactive),> 100 µM (inactive),> 100 µM (inactive),> 100 µM (inactive),> 100 µM (inactive),,> 100 µM (inactive),> 100 µM (inactive),> 100 µM (inactive),,> 100 µM (inactive),> 100 µM (inactive),> 100 µM (inactive),> 100 µM (inactive),> 100 µM (inactive)
Cc1ccc(Nc2nc(C)c(C(=O)CC(=O)C(=O)Nc3c(C)cccc3C(C)(C)C)s2)cc1,> 100 µM (inactive),> 100 µM (inactive),> 100 µM (inactive),> 100 µM (inactive),> 100 µM (inactive),38.5 µM (inactive),> 100 µM (inactive),> 100 µM (inactive),> 100 µM (inactive),> 100 µM (inactive),> 100 µM (inactive),> 100 µM (inactive),> 100 µM (inactive),> 100 µM (inactive),> 100 µM (inactive),,> 100 µM (inactive),> 100 µM (inactive),> 100 µM (inactive)
COc1cccc(C2c3cc4c(cc3OC(O)C2C)OCO4)c1OC (stereo unspecified),4.49 µM (inactive),4.02 µM (inactive),2.14 µM (inactive),20.1 µM (inactive),14.9 µM (inactive),17.4 µM (inactive),4.65 µM (inactive),4.05 µM (inactive),2.16 µM (inactive),,,4.49 µM (inactive),2.13 µM (inactive),11.1 µM (inactive),11.2 µM (inactive),2.36 µM (inactive),3.64 µM (inactive),3.36 µM (inactive),2.51 µM (inactive)
CCOC(=O)c1nnsc1NC(=O)NCCCCCCn1c(=O)n(CCCCCCNC(=O)Nc2snnc2C(=O)OCC)c(=O)n(CCCCCCNC(=O)Nc2snnc2C(=O)OCC)c1=O,67.1 µM (inactive),> 100 µM (inactive),76.9 µM (inactive),60.4 µM (inactive),39.5 µM (inactive),25.4 µM (inactive),32.1 µM (inactive),,31.1 µM (inactive),,80 µM (inactive),50.9 µM (inactive),11 µM (inactive),,18.6 µM (inactive),29.1 µM (inactive),67.6 µM (inactive),33 µM (inactive),18.1 µM (inactive)
CCC/N=C1\S/C(=C/c2ccc(OC)c(OC)c2)C(=O)N1c1ccccc1,21.5 µM (inactive),42.1 µM (inactive),44.5 µM (inactive),15.8 µM (inactive),> 100 µM (inactive),2.84 µM (inactive),80.2 µM (inactive),> 100 µM (inactive),33.9 µM (inactive),40.6 µM (inactive),16 µM (inactive),43.8 µM (inactive),43.2 µM (inactive),7.91 µM (inactive),17.8 µM (inactive),,> 100 µM (inactive),> 100 µM (inactive),41.8 µM (inactive)
CC1(O)C(=O)OC2CC([C@]3(O)CCC4[C@@H]5C[C@H]6O[C@]67[C@@H](O)C=CC(=O)[C@]7(C)C5CC[C@@]43C)C1(C)C2 (stereo partly specified),31.3 µM (inactive),38.7 µM (inactive),11.8 µM (inactive),45 µM (inactive),42 µM (inactive),52.7 µM (inactive),23.1 µM (inactive),4.54 µM (inactive),2.89 µM (inactive),1.82 µM (inactive),12.1 µM (inactive),20.1 µM (inactive),3.24 µM (inactive),18.2 µM (inactive),47.2 µM (inactive),29.8 µM (inactive),3.07 µM (inactive),5.97 µM (inactive),
O=Nc1c(-c2c(O)[nH]c3ccccc23)[nH]c2ccccc12 [INDIRUBIN-3-MONOXIME],2.29 µM (inactive),3.8 µM (inactive),0.64 µM (active),1.9 µM (inactive),4.27 µM (inactive),7.23 µM (inactive),2.67 µM (inactive),3.86 µM (inactive),4.15 µM (inactive),3.48 µM (inactive),5.08 µM (inactive),3.72 µM (inactive),3.95 µM (inactive),20 µM (inactive),25.8 µM (inactive),3.88 µM (inactive),4.79 µM (inactive),4.3 µM (inactive),
